Key:
[1] = tested on: cardiac fibroblasts transfected with AdV-Kv1.3-GFP; assay: Phase contrast microscopy of cellular morphology of Kv1.3 expressing cardiac fibroblasts; assay type: cell-based, rat; conditions: cells expressing Kv1.3 after 10^7 PFU/ml AdV-Kv1.3-GFP; phase contrast microscopy (FIG. 8B)
From the text: (§1) Cells: Primary neonatal cardiac cells were obtained from ventricles of 2-3-day-old rat pups. The ventricles were fine minced, dissociated in Ca^2+-free Hank's balanced salt solution (HBSS) supplemented with 0.1%, trypsin and 0.006% pancreatin, and dispersed by triturating.
(§2) Separation and culture of cardiac myocytes and fibroblasts: The solution of dispersed cells was supplemented with 10% neonatal calf serum to stop enzymatic activity, centrifuged, resuspended in culture medium, pre-plated in large culture flasks, and incubated for two hours to isolate the fibroblast enriched fraction. Fibroblasts were further purified by media exchange within 1 hour after each passage. The myocytes remaining in suspension were collected and plated at 1.5 10^5 cells/cm^2 and grown for five to seven days before experimentation.
(§3) Transfection: Subconfluent myocyte and fibroblast cultures were transfected with AdV-Kv1.3-GFP or AdV-GFP at 10^6-10^8 PFU/ml. After transfection the cells were cultured in 0-5% serum media with 0, 1, 10 or 100 nM Charybdotoxin (CTx), which is a specific K^+ channel blocker. After three days in culture, the cells were visually monitored and assayed.

[2] = tested on: cardiac fibroblasts transfected with AdV-Kv1.3-GFP; assay: Cell viability and apoptosis with Hoechst nuclei stain in Kv1.3 transfected cardiac fibroblasts; assay type: cell-based, rat; conditions: for rescue of cells from Kv1.3 induced apoptosis: Kv1.3 transfected fibroblasts, n=3 for each titer, three days in culture
From the text: as §1, §2, §3
Cell Viability and apoptosis: Cells were assayed for viability and apoptosis with Hoechst nuclei stain.

Substance: Charybdotoxin
- cellular morphology of the fibroblasts [1]: maintained normal cellular morphology
- rescue of cells from Kv1.3 induced apoptosis ([2]; Charybdotoxin alone (FIG. 7A)): partially rescued the cells
- rescue of cells from Kv1.3 induced apoptosis ([2]; cTx and 5% serum (FIG. 7B)): partially rescued the cells
- cardiac fibroblast cell viability ([2]; cells expressing Kv1.3, addition of Charybdotoxin (FIG. 8)): rescued
